Results published in patent US20250215014A1, “KINASE INHIBITORS, PREPARATION METHODS AND USES THEREOF” (InventisBio Co., Ltd., priority 2022, published 2025).

Experiments:
DGKa = DGKa (Homo sapiens (Human), UniProt P23743); experiment: DGK ADP-Glo Kinase Assay (DGKa); format: biochemical; details: 10 nM DGKa, 15 uM ATP
Protocol: (§1) Luminescence was recorded using an Tecan SPARK microplate reader.

DGKz = DGKz (Homo sapiens (Human), UniProt Q13574); experiment: DGK ADP-Glo Kinase Assay (DGKz); format: biochemical; details: 5 nM DGKz, 15 uM ATP
Sequence of DGKz (Q13574 whole entry): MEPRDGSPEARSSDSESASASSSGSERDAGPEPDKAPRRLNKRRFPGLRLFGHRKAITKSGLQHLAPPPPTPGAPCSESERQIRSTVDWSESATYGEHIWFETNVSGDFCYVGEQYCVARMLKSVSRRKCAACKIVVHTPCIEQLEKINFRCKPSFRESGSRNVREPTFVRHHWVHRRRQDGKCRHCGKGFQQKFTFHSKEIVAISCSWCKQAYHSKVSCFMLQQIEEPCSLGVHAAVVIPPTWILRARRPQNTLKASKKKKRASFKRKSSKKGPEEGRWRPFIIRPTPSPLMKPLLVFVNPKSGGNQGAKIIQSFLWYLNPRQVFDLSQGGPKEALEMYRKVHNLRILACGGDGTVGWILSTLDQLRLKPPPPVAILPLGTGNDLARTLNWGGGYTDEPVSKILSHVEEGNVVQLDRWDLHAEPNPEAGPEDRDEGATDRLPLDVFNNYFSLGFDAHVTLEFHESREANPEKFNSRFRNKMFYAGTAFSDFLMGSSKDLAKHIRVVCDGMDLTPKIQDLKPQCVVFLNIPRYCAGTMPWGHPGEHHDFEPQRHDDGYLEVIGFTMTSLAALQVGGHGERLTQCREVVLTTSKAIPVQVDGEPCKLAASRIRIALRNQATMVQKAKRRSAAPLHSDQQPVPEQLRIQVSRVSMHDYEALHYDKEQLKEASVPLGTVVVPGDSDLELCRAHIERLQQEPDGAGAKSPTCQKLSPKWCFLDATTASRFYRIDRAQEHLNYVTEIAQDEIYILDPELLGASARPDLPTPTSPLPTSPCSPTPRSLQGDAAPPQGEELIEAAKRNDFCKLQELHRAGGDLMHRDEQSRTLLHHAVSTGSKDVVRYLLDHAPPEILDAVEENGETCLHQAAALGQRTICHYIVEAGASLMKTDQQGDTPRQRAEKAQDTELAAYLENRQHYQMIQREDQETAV
Protocol: as §1

Sequence of DGKa (P23743 whole entry): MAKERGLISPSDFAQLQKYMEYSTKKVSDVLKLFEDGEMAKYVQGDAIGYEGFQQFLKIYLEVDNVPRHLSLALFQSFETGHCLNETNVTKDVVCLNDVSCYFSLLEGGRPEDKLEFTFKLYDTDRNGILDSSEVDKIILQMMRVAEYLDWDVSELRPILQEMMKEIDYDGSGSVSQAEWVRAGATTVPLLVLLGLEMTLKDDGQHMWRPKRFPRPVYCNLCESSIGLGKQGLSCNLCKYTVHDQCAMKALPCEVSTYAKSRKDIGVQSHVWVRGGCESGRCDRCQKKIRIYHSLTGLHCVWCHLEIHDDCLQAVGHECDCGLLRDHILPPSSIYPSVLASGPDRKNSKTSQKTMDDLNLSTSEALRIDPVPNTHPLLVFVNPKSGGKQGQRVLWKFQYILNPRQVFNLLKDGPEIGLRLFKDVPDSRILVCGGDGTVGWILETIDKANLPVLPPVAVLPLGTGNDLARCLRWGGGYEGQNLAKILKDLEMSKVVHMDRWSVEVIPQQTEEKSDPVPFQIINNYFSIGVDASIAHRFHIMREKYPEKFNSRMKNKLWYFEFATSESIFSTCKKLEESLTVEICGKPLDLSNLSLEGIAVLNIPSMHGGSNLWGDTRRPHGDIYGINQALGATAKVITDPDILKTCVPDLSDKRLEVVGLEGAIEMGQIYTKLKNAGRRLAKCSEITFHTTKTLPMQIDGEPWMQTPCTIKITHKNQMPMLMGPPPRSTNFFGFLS

CC[C@H]1CN([C@@H](CC)c2ccc(C(F)(F)F)cc2)[C@H](CC)CN1c1nc2nncn2c2ccc(C#N)nc12 (single isomer, unassigned) [Compound 34]
IC50 (DGKa): < 100 nM
IC50 (DGKz): < 100 nM

CC[C@H]1CN([C@H](CC)c2ccc(C(F)(F)F)cc2)[C@H](CC)CN1c1nc2nncn2c2ccc(C#N)nc12 (single isomer, unassigned) [Compound 35]
IC50 (DGKa): < 100 nM
IC50 (DGKz): 100 to 1000 nM

CC[C@H]1CN([C@@H](CC)c2ccc(SC(F)(F)F)cc2)[C@H](CC)CN1c1nc2nncn2c2ccc(C#N)nc12 (single isomer, unassigned) [Compound 68]
IC50 (DGKa): < 100 nM
IC50 (DGKz): 100 to 1000 nM

CC[C@H]1CN([C@@H](CC)c2ccc(SC(F)(F)F)cc2)[C@H](CC)CN1c1nc2nncn2c2ccc(C#N)nc12 (single isomer, unassigned) [Compound 69]
IC50 (DGKa): < 100 nM
IC50 (DGKz): 100 to 1000 nM

CC[C@@H]1CN(c2nc3nncn3c3ccc(C#N)nc23)[C@@H](C)CN1[C@@H](CC)c1ccc(C(F)(F)F)cc1 (single isomer, unassigned) [Compound 81]
IC50 (DGKa): < 100 nM
IC50 (DGKz): < 100 nM

CC[C@H]1CN([C@@H](CC)c2ccc(OC(F)(F)F)cc2)[C@H](CC)CN1c1nc2nncn2c2ccc(C#N)nc12 (single isomer, unassigned) [Compound 100]
IC50 (DGKa): < 100 nM
IC50 (DGKz): < 100 nM

CC[C@H]1CN([C@@H](CC)c2ccc(C(F)(F)F)cc2)[C@H](CC)CN1c1nc2nncn2c2ccc(C#N)nc12 (single isomer, unassigned) [Compound 109]
IC50 (DGKa): < 100 nM
IC50 (DGKz): < 100 nM

CC[C@H]1CN([C@H](CC)c2ccc(C(F)(F)F)cc2)[C@H](CC)CN1c1nc2nncn2c2ccc(C#N)nc12 (single isomer, unassigned) [Compound 110]
IC50 (DGKa): < 100 nM
IC50 (DGKz): 100 to 1000 nM

CC[C@H]1CN(C(c2ccc(S(F)(F)(F)(F)F)cc2)C2CC2)[C@H](CC)CN1c1nc(=O)n(C)c2ccc(C#N)nc12 (single isomer, unassigned) [Compound 117]
IC50 (DGKa): < 100 nM
IC50 (DGKz): 100 to 1000 nM

CC[C@H]1CN(C(c2ccc(S(F)(F)(F)(F)F)cc2)C2CC2)[C@H](CC)CN1c1nc(=O)n(C)c2ccc(C#N)nc12 (single isomer, unassigned) [Compound 118]
IC50 (DGKa): < 100 nM
IC50 (DGKz): 100 to 1000 nM

CC[C@H]1C[C@H](Oc2ccc(OC(F)(F)F)cc2)CCN1c1nc(=O)n(C)c2ccc(C#N)nc12 (stereo in doubt) [Compound 18]
IC50 (DGKa): < 100 nM
IC50 (DGKz): 100 to 1000 nM

CC[C@H]1CN([C@H](C)c2ccc(SC(F)(F)F)cc2)[C@H](CC)CN1c1nc2nncn2c2ccc(C#N)nc12 (stereo in doubt) [Compound 52]
IC50 (DGKa): < 100 nM
IC50 (DGKz): 100 to 1000 nM

CC[C@H]1CN([C@H](CC)c2cccc(S(F)(F)(F)(F)F)c2)[C@H](CC)CN1c1nc(=O)n(C)c2ccc(C#N)nc12 (stereo in doubt) [Compound 55]
IC50 (DGKa): < 100 nM
IC50 (DGKz): < 100 nM

CC[C@H]1CN([C@H](CC)c2cccc(S(F)(F)(F)(F)F)c2)[C@H](CC)CN1c1nc(=O)n(C)c2ccc(C#N)nc12 (stereo in doubt) [Compound 56]
IC50 (DGKa): 100 to 1000 nM
IC50 (DGKz): 100 to 1000 nM

CC[C@@H]1CN(c2nc(=O)n(C)c3ccc(C#N)nc23)[C@@H](C)CN1[C@@H](CC)c1ccc(S(F)(F)(F)(F)F)cc1 (stereo in doubt) [Compound 60]
IC50 (DGKa): < 100 nM
IC50 (DGKz): < 100 nM

CC[C@@H]1CN(c2nc(=O)n(C)c3ccc(C#N)nc23)[C@@H](C)CN1[C@H](CC)c1ccc(S(F)(F)(F)(F)F)cc1 (stereo in doubt) [Compound 61]
IC50 (DGKa): 100 to 1000 nM
IC50 (DGKz): 100 to 1000 nM

CC[C@H]1CN([C@@H](C)c2ccc(S(F)(F)(F)(F)F)cc2)[C@H](CC)CN1c1nc(=O)n(C)c2ccc(C#N)nc12 (stereo in doubt) [Compound 62]
IC50 (DGKa): < 100 nM
IC50 (DGKz): 100 to 1000 nM

CC[C@H]1CN([C@H](C)c2ccc(S(F)(F)(F)(F)F)cc2)[C@H](CC)CN1c1nc(=O)n(C)c2ccc(C#N)nc12 (stereo in doubt) [Compound 63]
IC50 (DGKa): < 100 nM
IC50 (DGKz): 100 to 1000 nM

CC[C@@H]1CN(c2nc3nncn3c3ccc(C#N)nc23)[C@@H](C)CN1[C@@H](CC)c1ccc(SC(F)(F)F)cc1 (stereo in doubt) [Compound 66]
IC50 (DGKa): < 100 nM
IC50 (DGKz): < 100 nM

CC[C@H]1CN([C@H](c2ccc(SC(F)(F)F)cc2)c2nc(C3CC3)no2)[C@H](CC)CN1c1nc(=O)n(C)c2ccc(C#N)nc12 (stereo in doubt) [Compound 70]
IC50 (DGKa): < 100 nM
IC50 (DGKz): < 100 nM

CC[C@@H]1CN(c2nc3nncn3c3ccc(C#N)nc23)[C@@H](C)CN1[C@H](CC)c1ccc(SC(F)(F)F)cc1 (stereo in doubt) [Compound 71]
IC50 (DGKa): < 100 nM
IC50 (DGKz): 100 to 1000 nM

CC[C@H]1C[C@]2(CCN1c1nc(=O)n(C)c3ccc(C#N)nc13)CC(c1ccc(OC(F)(F)F)cc1)=NO2 (stereo in doubt) [Compound 74]
IC50 (DGKa): < 100 nM
IC50 (DGKz): > 1000 nM

CC[C@@H]1C[C@@]2(CCN1c1nc(=O)n(C)c3ccc(C#N)nc13)CC(c1ccc(OC(F)(F)F)cc1)=NO2 (stereo in doubt) [Compound 75]
IC50 (DGKa): 100 to 1000 nM
IC50 (DGKz): 100 to 1000 nM

CC[C@H]1CN([C@H](CC)c2ccc(S(F)(F)(F)(F)F)cc2)[C@H](CC)CN1c1nc(=O)n2c3c(cc(C#N)nc13)OCC2 (stereo in doubt) [Compound 79]
IC50 (DGKa): 100 to 1000 nM
IC50 (DGKz): 100 to 1000 nM

CC[C@@H]1CN(c2nc3nncn3c3ccc(C#N)nc23)[C@@H](C)CN1[C@@H](CC)c1ccc(S(F)(F)(F)(F)F)cc1 (stereo in doubt) [Compound 80]
IC50 (DGKa): < 100 nM
IC50 (DGKz): < 100 nM

CC[C@@H]1CN(c2nc3nncn3c3ccc(C#N)nc23)[C@@H](C)CN1[C@H](CC)c1ccc(C(F)(F)F)cc1 (stereo in doubt) [Compound 82]
IC50 (DGKa): < 100 nM
IC50 (DGKz): 100 to 1000 nM

CC[C@H]1CN([C@@H](CC)c2ccc(S(F)(F)(F)(F)F)cc2)[C@H](CC)CN1c1nc(=O)n2c3c(cc(C#N)nc13)OCC2 (stereo in doubt) [Compound 83]
IC50 (DGKa): < 100 nM
IC50 (DGKz): 100 to 1000 nM

CC[C@H]1CN([C@@H](CC)c2ccc(S(F)(F)(F)(F)F)cc2)[C@H](CC)CN1c1nc2nncn2c2ccc(C#N)nc12 (stereo in doubt) [Compound 86]
IC50 (DGKa): < 100 nM
IC50 (DGKz): < 100 nM

CC[C@H]1CN([C@@H](C)c2ccc(S(F)(F)(F)(F)F)cc2)[C@H](CC)CN1c1nc2nncn2c2ccc(C#N)nc12 (stereo in doubt) [Compound 88]
IC50 (DGKa): < 100 nM
IC50 (DGKz): < 100 nM

CC[C@H]1CN([C@H](C)c2ccc(S(F)(F)(F)(F)F)cc2)[C@H](CC)CN1c1nc2nncn2c2ccc(C#N)nc12 (stereo in doubt) [Compound 89]
IC50 (DGKa): < 100 nM
IC50 (DGKz): 100 to 1000 nM

CC[C@@H]1CN(c2nc3nncn3c3ccc(C#N)nc23)[C@@H](C)CN1[C@H](CC)c1ccc(S(F)(F)(F)(F)F)cc1 (stereo in doubt) [Compound 90]
IC50 (DGKa): < 100 nM
IC50 (DGKz): 100 to 1000 nM

CC[C@H]1CN([C@H](CC)c2ccc(OC(F)(F)F)cc2)[C@H](CC)CN1c1nc2nncn2c2ccc(C#N)nc12 (stereo in doubt) [Compound 101]
IC50 (DGKa): < 100 nM
IC50 (DGKz): 100 to 1000 nM

CC[C@H]1CN([C@@H](CC)c2cccc(C(F)(F)F)c2)[C@H](CC)CN1c1nc2nncn2c2ccc(C#N)nc12 (stereo in doubt) [Compound 105]
IC50 (DGKa): < 100 nM
IC50 (DGKz): < 100 nM

CC[C@H]1CN([C@H](CC)c2cccc(C(F)(F)F)c2)[C@H](CC)CN1c1nc2nncn2c2ccc(C#N)nc12 (stereo in doubt) [Compound 106]
IC50 (DGKa): < 100 nM
IC50 (DGKz): 100 to 1000 nM

CC[C@H]1CN([C@@H](CC)c2ccc(C(F)(F)F)nc2)[C@H](CC)CN1c1nc2nncn2c2ccc(C#N)nc12 (stereo in doubt) [Compound 111]
IC50 (DGKa): < 100 nM
IC50 (DGKz): < 100 nM

CC[C@H]1CN([C@H](CC)c2ccc(C(F)(F)F)nc2)[C@H](CC)CN1c1nc2nncn2c2ccc(C#N)nc12 (stereo in doubt) [Compound 112]
IC50 (DGKa): < 100 nM
IC50 (DGKz): 100 to 1000 nM

CC[C@H]1CN([C@@H](CC)c2ccc(OC)cc2F)[C@H](CC)CN1c1nc2nncn2c2ccc(C#N)nc12 (stereo in doubt) [Compound 115]
IC50 (DGKa): < 100 nM
IC50 (DGKz): < 100 nM

CC[C@H]1CN([C@H](CC)c2ccc(OC)cc2F)[C@H](CC)CN1c1nc2nncn2c2ccc(C#N)nc12 (stereo in doubt) [Compound 116]
IC50 (DGKa): < 100 nM
IC50 (DGKz): 100 to 1000 nM

Cn1c(=O)nc(N2CCC3(CCN(c4ccc(OC(F)(F)F)cc4)C3)CC2)c2nc(C#N)ccc21 [Compound 8]
IC50 (DGKa): 100 to 1000 nM
IC50 (DGKz): 100 to 1000 nM

Cc1ccccc1-n1cc(C2CCN(c3nc(=O)n(C)c4ccc(C#N)nc34)CC2)cn1 [Compound 12]
IC50 (DGKa): > 1000 nM
IC50 (DGKz): > 1000 nM

Cn1c(=O)c(C(N)=O)c(N2CCC3(CN(c4ccc(OC(F)(F)F)cc4)C3)C2)c2nc(C#N)ccc21 [Compound 15]
IC50 (DGKa): < 100 nM
IC50 (DGKz): > 1000 nM

CC[C@@H]1C[C@H](Oc2ccc(OC(F)(F)F)cc2)CCN1c1nc(=O)n(C)c2ccc(C#N)nc12 [Compound 16]
IC50 (DGKa): 100 to 1000 nM
IC50 (DGKz): < 100 nM

Cc1ccc2oc(C3CCN(c4nc(=O)n(C)c5ccc(C#N)nc45)CC3)nc2c1 [Compound 20]
IC50 (DGKa): > 1000 nM
IC50 (DGKz): > 1000 nM

Cc1ccc2oc(C3CCN(c4nc(=O)n(C)c5ccc6nncn6c45)CC3)nc2c1 [Compound 22]
IC50 (DGKa): < 100 nM
IC50 (DGKz): > 1000 nM

CC[C@H]1CN([C@@H](CC)c2ccc(S(F)(F)(F)(F)F)cc2)[C@H](CC)CN1c1nc(=O)n(C)c2ccc(C#N)nc12 [Compound 28]
IC50 (DGKa): < 100 nM
IC50 (DGKz): < 100 nM

CC[C@H]1CN([C@H](CC)c2ccc(S(F)(F)(F)(F)F)cc2)[C@H](CC)CN1c1nc(=O)n(C)c2ccc(C#N)nc12 [Compound 29]
IC50 (DGKa): < 100 nM
IC50 (DGKz): < 100 nM

Cn1c(=O)nc(N2CCC3(CC2)CC(c2ccc(OC(F)(F)F)cc2)=NO3)c2nc(C#N)ccc21 [Compound 31]
IC50 (DGKa): < 100 nM
IC50 (DGKz): < 100 nM

Cc1ccc2oc(C3CCN(c4nc(=O)n(C)c5cc(O[C@@H]6CCOC6)c(Cl)cc45)CC3)nc2c1 [Compound 32]
IC50 (DGKa): < 100 nM
IC50 (DGKz): > 1000 nM
